Target: Aurora B/INCENP (Homo sapiens, UniProt Q96GD4)
Assay: Determination of inhibition of AIK: Aurora B/INCENP direct fluorescence polarization (IMAP) assay
Assay type: biochemical
Conditions: 10 uM ATP, 0.8 nM Aurora B/INCENP; values given as bins; read-out: IC50 of Exemplified Compounds Against AIK B

Sequence of Aurora B/INCENP (Q96GD4 whole entry): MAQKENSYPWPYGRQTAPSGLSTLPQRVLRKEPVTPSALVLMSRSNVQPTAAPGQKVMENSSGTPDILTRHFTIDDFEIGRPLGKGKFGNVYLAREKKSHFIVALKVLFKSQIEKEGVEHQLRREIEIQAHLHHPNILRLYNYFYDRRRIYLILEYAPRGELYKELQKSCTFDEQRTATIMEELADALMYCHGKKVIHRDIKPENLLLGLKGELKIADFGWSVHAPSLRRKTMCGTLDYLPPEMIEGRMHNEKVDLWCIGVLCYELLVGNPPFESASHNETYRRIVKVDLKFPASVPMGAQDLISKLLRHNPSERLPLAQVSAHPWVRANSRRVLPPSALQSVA
Sequence of Aurora B/INCENP (Q9NQS7 whole entry partner): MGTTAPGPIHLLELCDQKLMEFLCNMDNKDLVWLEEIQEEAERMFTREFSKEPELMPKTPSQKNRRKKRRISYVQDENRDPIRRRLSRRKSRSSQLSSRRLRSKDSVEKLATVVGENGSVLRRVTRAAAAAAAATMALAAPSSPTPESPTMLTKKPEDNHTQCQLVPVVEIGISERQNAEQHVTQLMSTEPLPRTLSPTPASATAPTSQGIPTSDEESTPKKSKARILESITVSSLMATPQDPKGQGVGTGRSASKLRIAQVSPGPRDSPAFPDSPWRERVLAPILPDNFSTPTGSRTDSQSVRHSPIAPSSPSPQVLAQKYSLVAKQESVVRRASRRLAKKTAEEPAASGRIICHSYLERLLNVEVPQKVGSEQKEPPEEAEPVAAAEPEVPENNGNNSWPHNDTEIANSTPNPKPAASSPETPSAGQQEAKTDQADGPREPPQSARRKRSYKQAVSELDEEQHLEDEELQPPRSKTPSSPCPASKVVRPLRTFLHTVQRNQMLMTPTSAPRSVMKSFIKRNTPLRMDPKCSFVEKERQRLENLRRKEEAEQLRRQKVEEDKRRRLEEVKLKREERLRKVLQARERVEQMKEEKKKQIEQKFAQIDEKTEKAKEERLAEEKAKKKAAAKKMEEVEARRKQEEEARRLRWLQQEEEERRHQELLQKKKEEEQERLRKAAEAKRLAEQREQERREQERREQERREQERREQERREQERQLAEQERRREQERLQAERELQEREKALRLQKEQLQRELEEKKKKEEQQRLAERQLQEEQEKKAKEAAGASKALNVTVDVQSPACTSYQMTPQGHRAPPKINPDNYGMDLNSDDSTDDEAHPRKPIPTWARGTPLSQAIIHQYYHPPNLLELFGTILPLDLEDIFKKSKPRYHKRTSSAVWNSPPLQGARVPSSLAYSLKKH

| SMILES | IC50 [nM] |
| --- | --- |
| Cc1cnc2[nH]c3c(C)c(C(=O)NC4CCN(C)CC4)cc(-c4cccc(C(=O)NC5CC5)c4)c3c2c1 [Compound 228, 5-(3-(cyclopropylcarbamoyl)phenyl)-3,8-dimethyl-N-(1-methylpiperidin-4-yl)-9H-pyrido[2,3-b]indole-7-carboxamide] | > 13 |
| CCS(=O)(=O)c1cccc(-c2ccc(OC[C@@H](O)CO)c3[nH]c4ncc(C)cc4c23)c1 [Compound 230, (S)-3-(5-(3-(ethylsulfonyl)phenyl)-3-methyl-9H-pyrido[2,3-b]indol-8-yloxy)propane-1,2-diol] | 4 to 5.5 |
| CCS(=O)(=O)c1cccc(-c2ccc(OC[C@H](O)CO)c3[nH]c4ncc(C)cc4c23)c1 [Compound 231, (R)-3-(5-(3-(ethylsulfonyl)phenyl)-3-methyl-9H-pyrido[2,3-b]indol-8-yloxy)propane-1,2-diol] | < 4 |
| CCS(=O)(=O)c1cccc(-c2ccc(OC[C@H](O)CN(C)C)c3[nH]c4ncc(C)cc4c23)c1 [Compound 232, (R)-1-(dimethylamino)-3-(5-(3-(ethylsulfonyl)phenyl)-3-methyl-9H-pyrido[2,3-b]indol-8-yloxy)propan-2-ol] | 5.6 to 8.5 |
| CCS(=O)(=O)c1cccc(-c2ccc(OC[C@H](C)O)c3[nH]c4ncc(C)cc4c23)c1 [Compound 234, (S)-1-(5-(3-(ethylsulfonyl)phenyl)-3-methyl-9H-pyrido[2,3-b]indol-8-yloxy)propan-2-ol] | 4 to 5.5 |
| CCS(=O)(=O)c1cccc(-c2cc(NC(=O)CCN(C)C)c(OC)c3[nH]c4ncc(C)cc4c23)c1 [Compound 240, 3-(dimethylamino)-N-(5-(3-(ethylsulfonyl)phenyl)-8-methoxy-3-methyl-9H-pyrido[2,3-b]indol-7-yl)propanamide] | 5.6 to 8.5 |
| CCS(=O)(=O)c1cccc(-c2cc(NC(=O)C3CC3)c(OC)c3[nH]c4ncc(C)cc4c23)c1 [Compound 242, N-(5-(3-(ethylsulfonyl)phenyl)-8-methoxy-3-methyl-9H-pyrido[2,3-b]indol-7-yl)-cyclopropanecarboxamide] | 8.6 to 13 |
| CCS(=O)(=O)c1cccc(-c2cc(NC(=O)C3CCN(C(C)=O)CC3)c(OC)c3[nH]c4ncc(C)cc4c23)c1 [Compound 243, 1-acetyl-N-(5-(3-(ethylsulfonyl)phenyl)-8-methoxy-3-methyl-9H-pyrido[2,3-b]indol-7-yl)piperidine-4-carboxamide] | 8.6 to 13 |
| CCS(=O)(=O)c1cccc(-c2cc(Cl)c(OCCCO)c3[nH]c4ncc(C)cc4c23)c1 [Compound 248, 3-(7-chloro-5-(3-(ethylsulfonyl)phenyl)-3-methyl-9H-pyrido[2,3-b]indol-8-yloxy)propan-1-ol] | > 13 |
| CCS(=O)(=O)c1cccc(-c2cc(N(C)C(=O)C3CC3)c(OC)c3[nH]c4ncc(C)cc4c23)c1 [Compound 253, N-(5-(3-(ethylsulfonyl)phenyl)-8-methoxy-3-methyl-9H-pyrido[2,3-b]indol-7-yl)-N-methylcyclopropanecarboxamide] | > 13 |
| CCS(=O)(=O)c1cccc(-c2cc(N(C)C(=O)CCN(C)C)c(OC)c3[nH]c4ncc(C)cc4c23)c1 [Compound 254, 3-(dimethylamino)-N-(5-(3-(ethylsulfonyl)phenyl)-8-methoxy-3-methyl-9H-pyrido[2,3-b]indol-7-yl)-N-methylpropanamide] | > 13 |
| CCS(=O)(=O)c1cccc(-c2ccc(OCCCN(C)C)c3[nH]c4ncc(C(F)(F)F)cc4c23)c1 [Compound 258, 3-(5-(3-(ethylsulfonyl)phenyl)-3-(trifluoromethyl)-9H-pyrido[2,3-b]indol-8-yloxy)-N,N-dimethylpropan-1-amine] | > 13 |
| CONC(=O)c1cccc(-c2ccc(OC)c3[nH]c4ncc(C)cc4c23)c1 [Compound 260, N-methoxy-3-(8-methoxy-3-methyl-9H-pyrido[2,3-b]indol-5-yl)benzamide] | > 13 |
| CCN(CC)CCNC(=O)c1cc(-c2cccc(S(=O)(=O)CC)c2)c2c([nH]c3ncc(C)cc32)c1C [Compound 262, N-(2-(diethylamino)ethyl)-5-(3-(ethylsulfonyl)phenyl)-3,8-dimethyl-9H-pyrido[2,3-b]indole-7-carboxamide] | 8.6 to 13 |
| CCN(CCO)CCCOc1ccc(-c2cccc(S(=O)(=O)C3CC3)c2)c2c1[nH]c1ncc(C)cc12 [Compound 270, 2-((3-(5-(3-(cyclopropylsulfonyl)phenyl)-3-methyl-9H-pyrido[2,3-b]indol-8-yloxy)propyl)(ethyl)amino)ethanol] | 4 to 5.5 |
| CCN(CCCOc1ccc(-c2cccc(S(=O)(=O)C3CC3)c2)c2c1[nH]c1ncc(C)cc12)CCOP(=O)(O)O [Compound 272, 2-((3-(5-(3-(cyclopropylsulfonyl)phenyl)-3-methyl-9H-pyrido[2,3-b]indol-8-yloxy)propyl)(ethyl)amino)ethyl dihydrogen phosphate] | 5.6 to 8.5 |
| CCN(CCO)CCCOc1ccc(-c2cccc(C(=O)NC3CC3)c2)c2c1[nH]c1ncc(C)cc12 [Compound 273, N-cyclopropyl-3-(8-(3-(ethyl(2-hydroxyethyl)amino)propoxy)-3-methyl-9H-pyrido[2,3-b]indol-5-yl)benzamide] | 5.6 to 8.5 |
| CCN(CCCOc1ccc(-c2cccc(C(=O)NC3CC3)c2)c2c1[nH]c1ncc(C)cc12)CCOP(=O)(O)O [Compound 275, 2-((3-(5-(3-(cyclopropylcarbamoyl)phenyl)-3-methyl-9H-pyrido[2,3-b]indol-8-yloxy)propyl)(ethyl)amino)ethyl dihydrogen phosphate] | 5.6 to 8.5 |
| CN1CCC(COc2ccc(-c3cccc(S(=O)(=O)C4CC4)c3)c3c2[nH]c2ncc(Cl)cc23)CC1 [Compound 286, 3-chloro-5-(3-(cyclopropylsulfonyl)phenyl)-8-((1-methylpiperidin-4-yl)methoxy)-9H-pyrido[2,3-b]indole] | 8.6 to 13 |
| CCS(=O)(=O)c1cccc(-c2ccc(OCC3CCN(C)CC3)c3[nH]c4ncc(F)cc4c23)c1 [Compound 287, 5-(3-(ethylsulfonyl)phenyl)-3-fluoro-8-((1-methylpiperidin-4-yl)methoxy)-9H-pyrido[2,3-b]indole] | 5.6 to 8.5 |
| CCN(CCO)CCCOc1ccc(-c2cccc(S(=O)(=O)CC)c2)c2c1[nH]c1ncc(Cl)cc12 [Compound 293, 2-((3-(3-chloro-5-(3-(ethylsulfonyl)phenyl)-9H-pyrido[2,3-b]indol-8-yloxy)propyl)(ethyl)amino)ethanol] | < 4 |
| CCN(CCO)CCCOc1ccc(-c2cccc(S(=O)(=O)C3CC3)c2)c2c1[nH]c1ncc(Cl)cc12 [Compound 298, 2-((3-(3-chloro-5-(3-(cyclopropylsulfonyl)phenyl)-9H-pyrido[2,3-b]indol-8-yloxy)propyl)(ethyl)amino)ethanol] | < 4 |
| CCS(=O)(=O)c1cccc(-c2ccc(OCCCn3ccnc3)c3[nH]c4ncc(Cl)cc4c23)c1 [Compound 301, 8-(3-(1H-imidazol-1-yl)propoxy)-3-chloro-5-(3-(ethylsulfonyl)phenyl)-9H-pyrido[2,3-b]indole] | < 4 |

Further lines, results first:

| IC50 [nM] | SMILES |
| --- | --- |
| 5.6 to 8.5 | CCS(=O)(=O)c1cccc(-c2ccc(OC[C@@H](C)O)c3[nH]c4ncc(C)cc4c23)c1 [Compound 233, (R)-1-(5-(3-(ethylsulfonyl)phenyl)-3-methyl-9H-pyrido[2,3-b]indol-8-yloxy)propan-2-ol] |
| 5.6 to 8.5 | CCS(=O)(=O)c1cccc(-c2cc(Cl)c(OC)c3[nH]c4ncc(C)cc4c23)c1 [Compound 246, 7-chloro-5-(3-(ethylsulfonyl)phenyl)-8-methoxy-3-methyl-9H-pyrido[2,3-b]indole] |
| > 13 | CCS(=O)(=O)c1cccc(-c2ccc(OCCN3CCOCC3)c3[nH]c4ncc(Cl)cc4c23)c1 [Compound 255, 4-(2-(3-chloro-5-(3-(ethylsulfonyl)phenyl)-9H-pyrido[2,3-b]indol-8-yloxy)ethyl)morpholine] |
| > 13 | CCS(=O)(=O)c1cccc(-c2ccc(OCCC#N)c3[nH]c4ncc(Cl)cc4c23)c1 [Compound 256, 3-(3-chloro-5-(3-(ethylsulfonyl)phenyl)-9H-pyrido[2,3-b]indol-8-yloxy)propanenitrile] |
| > 13 | COc1ccc(-c2cccc(C(=O)N3CCOCC3)c2)c2c1[nH]c1ncc(C)cc12 [Compound 259, (3-(8-methoxy-3-methyl-9H-pyrido[2,3-b]indol-5-yl)phenyl)(morpholino)methanone] |
| 5.6 to 8.5 | CCN(CCO)CCCOc1ccc(-c2cccc(S(=O)(=O)CC)c2)c2c1[nH]c1ncc(C)cc12 [Compound 276, 2-(ethyl(3-(5-(3-(ethylsulfonyl)phenyl)-3-methyl-9H-pyrido[2,3-b]indol-8-yloxy)propyl)amino)ethanol] |
| 4 to 5.5 | CCN(CCCOc1ccc(-c2cccc(S(=O)(=O)CC)c2)c2c1[nH]c1ncc(C)cc12)CCOP(=O)(O)O [Compound 278, 2-(ethyl(3-(5-(3-(ethylsulfonyl)phenyl)-3-methyl-9H-pyrido[2,3-b]indol-8-yloxy)propyl)amino)ethyl dihydrogen phosphate] |
| 8.6 to 13 | CN1CCC(COc2ccc(-c3cccc(C(=O)NC4CC4)c3)c3c2[nH]c2ncc(Cl)cc23)CC1 [Compound 285, 3-(3-chloro-8-((1-methylpiperidin-4-yl)methoxy)-9H-pyrido[2,3-b]indol-5-yl)-N-cyclopropylbenzamide] |
| < 4 | CCS(=O)(=O)c1cccc(-c2ccc(OCCCO)c3[nH]c4ncc(Cl)cc4c23)c1 [Compound 291, 3-(3-chloro-5-(3-(ethylsulfonyl)phenyl)-9H-pyrido[2,3-b]indol-8-yloxy)propan-1-ol] |
| < 4 | CCN(CCCOc1ccc(-c2cccc(S(=O)(=O)CC)c2)c2c1[nH]c1ncc(Cl)cc12)CCOP(=O)(O)O [Compound 294, 2-((3-(3-chloro-5-(3-(ethylsulfonyl)phenyl)-9H-pyrido[2,3-b]indol-8-yloxy)propyl)(ethyl)amino)ethyl dihydrogen phosphate] |
| < 4 | Cc1cnc2[nH]c3c(OCCCN4CCC(O)CC4)ccc(-c4cccc(S(=O)(=O)C5CC5)c4)c3c2c1 [Compound 300, 1-(3-(5-(3-(cyclopropylsulfonyl)phenyl)-3-methyl-9H-pyrido[2,3-b]indol-8-yloxy)propyl)piperidin-4-ol] |

— patent publication US20090312288A1 (TAKEDA PHARMACEUTICAL COMPANY LIMITED, priority 2008, published 2009)
